{"source": "patent US20230312652A1", "about": "“NOVEL PEPTIDES AND USES THEREOF” (Aarhus Universitet, priority 2020, published 2023)", "key": {"[1]": {"test": "Plasma stability, mouse plasma", "format": "in vitro ADME", "details": "2 μM, 37° C.", "description": "Mouse or human plasma were incubated with 2 μM of P1 (SEQ ID NO: 1) or propantheline bromide (positive control for degradation) and left at 37° C. At each time point, stop solution was added to precipitate the solution and after mixing and centrifugation, supernatant was used for LCMS analysis."}, "[2]": {"tested_on": "R6/2 mice (mouse model of Huntington's)", "test": "Stereological analysis of regional brain volume in R6/2 mice", "format": "in vivo", "details": "13 mg/kg SC daily, 8 to 12 weeks of age", "description": "The brain was cut using a fine razor blade and one hemisphere (right) was directly put into ice-cold 4% PFA in PBS for 24 hours, and then transferred to a 30% sucrose PBS solution for 48 hours and stored at 4° C.\nThe PFA fixed hemispheres were imbedded in TissueTec and sliced on a cryostat at 50 μm thickness. For stereology, every 5th section was sampled using the principle of systematic random sampling, giving a section sampling fraction (SSF)=1/5.\nThe sections were mounted on chrome-gelatin-coated slides and Nissl stained with a 0.25% thionine solution (thionin, Sigma T3387). Image acquisition and analysis was performed using the newCAST system (Visiopharm, Horsholm, Denmark). This system consists of an Olympus light microscope (Olympus BX50, Olympus, Denmark) modified for stereology with a digital camera (PixeLINK PLA686C, Canada) and a motorized microscope stage (Prior H138 with controller H29, Cambridge, UK). The newCAST software was interfaced to the digital camera superimposing the counting frames on the live images.\nThe volume estimation was carried out using the Cavalieri principle for quantifying the total volume of the hippocampus, striatum and mid-part of the cortex (6 slides used for this) using a 4× lens."}, "CREB and AMPK": {"tested_on": "CREB and AMPK", "test": "CREB and AMPK activation in brain of wild-type mice after subcutaneous injection", "format": "in vivo, mouse", "details": "SC", "description": "To assess the subcutaneous administration route of peptide P1, 8 weeks old wild-type mice were subcutaneously injected with different doses ranging between 0.13 to 26 mg/kg of peptide P1 dissolved in 4.38 mM L-His, 140 mM NaCl, 0.2% Tween-20 and 1500 IU hyaluronidase (pH 6.15). Likewise, was an earlier lead peptide constituting a linear version of P1 attached to a cell-penetrating moiety (P9, SEQ ID NO: 9), tested for its ability to activate CREB in both striatum and hippocampus (in a separate study) following subcutaneous injection with 3.6 mg/kg. 2 hours after injection the mice were sacrificed by cervical dislocation and striatal tissue was isolated by dissection and snap frozen in liquid nitrogen and stored at −80° C. until further use. To assess the activation of CREB and AMPK, the tissue was lysed using a TissueLyser in lysis buffer containing cOmplete and DTT. The samples were subsequently homogenized by sonication. The phosphorylation of CREB on serine 133 and threonine 172 on AMPK was subsequently validated by western blotting and the levels of were normalized to beta-actin. Student's t-test was used for statistical analysis."}, "TDP-43(ΔNLS)-YFP": {"tested_on": "TDP-43(ΔNLS)-YFP", "test": "Clearance of cytoplasmic TDP-43 in HEK293 cells, western blotting", "format": "cell-based", "details": "dose-range of P1, 24 hours", "description": "100,000 HEK293T cells were seeded in a 24-well plate per well. At 60% confluency the cells were transfected with a form of TDP-43-YFP with a mutated nuclear localization signal (TDP-43(ΔNLS)-YFP) to restrict TDP-43 to the cytosol, which is the pathogenic localization in frontotemporal dementia^67. After 24 hours, the cells were treated with a dose-range of peptide P1 and further incubated for another 24 hours. The cells were subsequently lysed in lysis buffer containing DTT and cOmplete cocktail protease inhibitor. The levels of TDP-43 were validated by western blotting using an anti-GFP antibody and the levels were normalized to beta-actin."}, "[3]": {"test": "Liver microsome stability, human", "format": "in vitro ADME", "details": "2 μM, up to 60 minutes", "description": "Reactions were stopped at timepoints between 0-60 min. and samples analysed by LCMS."}, "cortical neurons": {"tested_on": "cortical neurons", "test": "Survival of wild-type cortical neurons, MTT assay", "format": "cell-based, mouse", "description": "Cortical neurons were isolated from p0 wild-type mice and seeded in a density of 50.000 in a 96-well plate pre-coated with poly-L and laminin and incubated at 37° C. in a 5% C02 atmosphere. At 7 days in vitro (DIV7) the neurons were treated by changing half the media with neurobasal A with B27 containing the peptides (P2, P4 or P6) to give a finale concentration of 1 uM and further incubated. The cortical neurons were treated in a likewise manner on DIV9 and DIV11. At DIV12 half the media was removed and 3-(4,5-dimethylthiazole-2-yl)-2,5-diphenyltetrazolium bromide (MTT) was added to the media to give a finale concentration of 0.5 mg/mL. MTT is reduced by mitochondrial enzymes in active cells to an insoluble product called formazan, which can be detected by colorimetry. Thus, the colour generated reflects activity and viable cells in the culture. The neurons were incubated for 4 hours with MTT and thereafter lysed in a 50% EtOH and 50% DMSO solution. To assure proper mixing of formazan, the plate was left to shake for 30 minutes before being measured at 570 nm and 650 nm. Student's t-test was used for statistical analysis.\nFurther, a drug-dose response on survival for peptide P1 was assessed in a similar manner."}, "[4]": {"test": "Mouse brain homogenate stability", "format": "in vitro ADME", "details": "2 μM, read-out: T½ in brain homogenate", "description": "Mouse brain homogenate was incubated with 2 μM of P1 or 7-Ethoxycoumarin (positive control of degradation). Enzymatic reactions were stopped at timepoints between 0-240 min and samples analysed by LCMS. For test with protease inhibitors, brain homogenate was pre-incubated for 30 minutes with protease inhibitors prior to incubation with P1. For brain homogenate binding, 2 μM of P1 or propranolol (positive control) were added to mouse brain homogenate and incubated at 37° C. for 30 minutes. To prepare the protein-free samples (F samples) to be used for unbound determination, an aliquot of the pre-incubated matrix containing test compound or control compound was transferred to ultracentrifuge tubes and subjected to ultracentrifugation at 37° C., 35000 rpm for 4 hrs. In parallel, brain homogenate was incubated for 4.5 hrs to determine total levels after incubation."}, "[5]": {"tested_on": "HTT in GM01650E fibroblasts", "test": "Total HTT levels in fibroblasts from a healthy individual (GM01650E)", "format": "cell-based, human", "details": "1 uM, healthy cell line, 2-4 hours", "description": "GM04719 was seeded at 30,000-50,000 per well in a 96-well. The following day, the cells were treated with 1 uM of P1 and incubated at 37° C. and 5% CO2 at timepoints 0-24 hours. Hereafter, the cells were lysed in RIPA lysis buffer containing cOmplete cocktail protease inhibitor. Total Huntingtin levels were analysed using antibody mab2166 (Sigma-Aldrich) by western blotting and normalized to beta-actin. To determine, whether P1 also clears the healthy allele, we further assessed levels of total HTT in fibroblast derived from a healthy individual (GM01650E), bought from Coriell Biobank."}}, "note": "Where a SMILES comes first, the peptide text is derived from it.", "data": [{"smiles": "CSCC[C@@H]1NC(=O)[C@H](C(C)C)NC(=O)[C@H](CC(=O)O)NC(=O)[C@H](CCC(=O)O)NC(=O)[C@H](CCC(=O)O)NC(=O)[C@H](Cc2c[nH]cn2)NC(=O)[C@H](CCC(=O)O)NC(=O)[C@H](C(C)C)NC(=O)[C@@H]2CCCN2C(=O)[C@H](CCC(=O)O)NC(=O)[C@H]([C@@H](C)O)NC1=O", "note": "[Peptide P1, [MTEPVEHEEDV]] (cyclo(MTEPVEHEEDV))", "values": [{"measurement": "half-life", "setting": "[1]", "result": "> 4.82", "unit": "h"}, {"measurement": "cortical volume", "setting": "[2]", "result": "tendency of increasing"}, {"measurement": "hippocampal volume", "setting": "[2]", "result": "tendency of increasing"}, {"measurement": "dose resulting in the highest efficacy", "setting": "CREB and AMPK; CREB and AMPK activation in striatum", "result": 13, "unit": "mg/kg"}, {"measurement": "pAMPK in striatum", "setting": "CREB and AMPK; doses between 0.13-13 mg/kg, 2 hours after injection", "result": "significantly activated"}, {"measurement": "pCREB (S133) in striatum", "setting": "CREB and AMPK; doses between 0.13-26 mg/kg, 2 hours after injection", "result": "significantly activated"}, {"measurement": "cytoplasmic TDP-43 levels", "setting": "TDP-43(ΔNLS)-YFP", "result": "decreased the pathogenic cytoplasmic form of TDP-43"}, {"measurement": "clearance and stability in liver microsomes", "setting": "[3]", "result": "low clearance and high stability"}, {"measurement": "survival in drug-dose response study", "setting": "cortical neurons; BDNF as positive control", "result": "increases survival"}, {"measurement": "EC50", "setting": "cortical neurons; drug-dose response, Example 5", "result": 2.7, "unit": "µM"}, {"measurement": "half-life", "setting": "[4]", "result": 4.08, "unit": "h"}, {"measurement": "total HTT levels", "setting": "[5]", "result": "increasing the total HTT levels"}]}]}
